One test relates to Pseudomonas aeruginosa. Nature of the test: Gradient Plate MIC vs gram-negative microorganisms.
Test [1] deals with Penicillin Resistant Staphylococcus aureus V41. Nature of the test: Gradient Plate MIC vs penicillin resistant Staphylococcus aureus, isolate V41.
The test system of test [2] is Penicillin Resistant Staphylococcus aureus V32. Description: Gradient Plate MIC vs penicillin resistant Staphylococcus aureus, isolate V32.
The next test has as its system Aerobacter aerogenes. Nature of the test: Gradient Plate MIC vs gram-negative microorganisms. The note with it: Klebsiella aerogenes.
A further test has as its system Shigella sp. Nature of the test: Gradient Plate MIC vs gram-negative microorganisms.
The test system of a further test is Salmonella heidelberg. Description: Gradient Plate MIC vs gram-negative microorganisms. The settings on record: Salmonella enterica.
The subject of test [3] is Penicillin Resistant Staphylococcus aureus V84. Nature of the test: Gradient Plate MIC vs penicillin resistant Staphylococcus aureus, isolate V84.
In test [4] the test system is Penicillin Resistant Staphylococcus aureus X400. Description: Gradient Plate MIC vs penicillin resistant Staphylococcus aureus, isolate X400.
Test [5] concerns Escherichia coli. Description: Gradient Plate MIC vs gram-negative microorganisms.
Test [6] relates to Klebsiella pneumoniae. Nature of the test: Gradient Plate MIC vs gram-negative microorganisms.
In test [7] the test system is Serratia marcescens. Nature of the test: Gradient Plate MIC vs gram-negative microorganisms.
The test system of test [8] is Penicillin Resistant Staphylococcus aureus X1.1. Nature of the test: Gradient Plate MIC vs penicillin resistant Staphylococcus aureus, isolate X1.1.
Another test relates to Staphylococcus aureus. Description: In vitro antibiotic spectrum, disc-plate method. The format is cell-based. The note with it: read-out: Diameter of Zone of Inhibition; for zone of inhibition at 500 µg/mL: concentration 0.5 mg/ml.
A further test concerns Salmonella gallinarum. Nature of the test: In vitro antibiotic spectrum, disc-plate method. The note with it: Salmonella enterica, read-out: Diameter of Zone of Inhibition; for zone of inhibition at 500 µg/mL: concentration 0.5 mg/ml (ditto). The class given is cell-based. The source says:
In the following Table III the antibiotic activity of the compounds of the invention is further illustrated by the activity shown for representative compounds as determined by the standard disc-plate method.

In test [9] the test system is Escherichia coli. Description: In vitro antibiotic spectrum, disc-plate method. The settings on record: read-out: Diameter of Zone of Inhibition; for zone of inhibition at 500 µg/mL: concentration 0.5 mg/ml (ditto). The format is cell-based.
The test system of the next test is Bacillus subtilis. Nature of the test: In vitro antibiotic spectrum, disc-plate method. The class given is cell-based. The settings on record: read-out: Diameter of Zone of Inhibition; for zone of inhibition at 500 µg/mL: concentration 0.5 mg/ml (ditto).
For the next test, the system named is Mycobacterium avium. Description: In vitro antibiotic spectrum, disc-plate method. The class given is cell-based. The settings on record: read-out: Diameter of Zone of Inhibition.
A further test relates to Sarcina lutea. Description: In vitro antibiotic spectrum, disc-plate method. The format is cell-based. The note with it: Micrococcus luteus, read-out: Diameter of Zone of Inhibition; for zone of inhibition at 500 µg/mL: concentration 0.5 mg/ml (ditto).
Test [10] deals with Serratia marcescens. Description: In vitro antibiotic spectrum, disc-plate method. The settings on record: read-out: Diameter of Zone of Inhibition; for zone of inhibition at 500 µg/mL: concentration 0.5 mg/ml (ditto). The class given is cell-based.
The subject of another test is Proteus vulgaris. Nature of the test: In vitro antibiotic spectrum, disc-plate method. The format is cell-based. The note with it: read-out: Diameter of Zone of Inhibition; for zone of inhibition at 500 µg/mL: concentration 0.5 mg/ml.
Test [11] concerns Klebsiella pneumoniae. Nature of the test: In vitro antibiotic spectrum, disc-plate method. The format is cell-based. The settings on record: read-out: Diameter of Zone of Inhibition; for zone of inhibition at 500 µg/mL: concentration 0.5 mg/ml (ditto).
Another test concerns Pseudomonas solanacearum. Description: microbe, parasite or virus in culture. The format is cell-based. The settings on record: Ralstonia solanacearum, read-out: Diameter of Zone of Inhibition.
The mark [12] stands for this setting: concentration 0.1 mg/ml (ditto).

Values after ≈ are worked out from the molar mass of the structure shown.

For orientation: MIC means the smallest concentration in the dilution series that meets the test's criterion for growth inhibition. As to `COC1(NC(=O)C(O)c2ccccc2)C(=O)N2C(C(=O)O)=C(CSc3nnnn3C)CS[C@@H]21` (stereo partly shown) [A, 7-methoxy-7-mandelamido-3-(1-methyl-1H-tetrazole-5-ylthiomethyl)-3-cephem-4-carboxylic acid], the MIC is > 200 µg/mL with Pseudomonas aeruginosa; 4.2 µg/mL (≈ 8.53 µM) in test [1] (NS = absence of serum); 6.7 µg/mL in test [1] (S = presence of serum); 4.5 µg/mL (≈ 9.14 µM) in [2] (NS = absence of serum); 7.6 µg/mL in [2] (S = presence of serum); 0.7 µg/mL (≈ 1.42 µM) with Aerobacter aerogenes. For the same compound, the MIC came out at 2 µg/mL (≈ 4.06 µM) in the test on Shigella sp.; 0.6 µg/mL (≈ 1.22 µM) against Salmonella heidelberg; 3.1 µg/mL (≈ 6.29 µM) in [3] (NS = absence of serum); 2 µg/mL in [3] (S = presence of serum); 16.6 µg/mL (≈ 33.7 µM) in test [4] (NS = absence of serum); 15.4 µg/mL in [4] (S = presence of serum). Also, the MIC in the test on Escherichia coli [5] is 2.5 µg/mL (≈ 5.08 µM); in the test on Klebsiella pneumoniae [6], 0.6 µg/mL (≈ 1.22 µM); in the test with Serratia marcescens [7] it was 3.4 µg/mL (≈ 6.9 µM); in test [8] (NS = absence of serum) it was 0.5 µg/mL (≈ 1.02 µM); in test [8] (S = presence of serum) it was < 0.1 µg/mL.
As to `COC1(NC(=O)Cc2cccs2)C(=O)N2C(C(=O)O)=C(CSc3nnnn3C)CS[C@@H]21` (stereo partly shown) [B, 7-methoxy-7-[2-(2-thienyl)acetamido]-3-(1-methyl-1H-tetrazol-5-ylthiomethyl)-3-cephem-4-carboxylic acid], the minimum inhibitory concentration (MIC) in the test on Pseudomonas aeruginosa is > 200 µg/mL; in test [1] (NS = absence of serum), 1.5 µg/mL (≈ 3.11 µM); in test [1] (S = presence of serum), 1.1 µg/mL; in test [2] (NS = absence of serum), 1.8 µg/mL (≈ 3.73 µM); in [2] (S = presence of serum), 2 µg/mL; with Aerobacter aerogenes, 3.5 µg/mL (≈ 7.25 µM). The MIC in the test with Shigella sp. amounted to 6.6 µg/mL (≈ 13.7 µM); in the test on Salmonella heidelberg, 0.9 µg/mL (≈ 1.87 µM); in [3] (NS = absence of serum) it was 0.6 µg/mL (≈ 1.24 µM); in test [3] (S = presence of serum) it was 1 µg/mL; in test [4] (NS = absence of serum), 10 µg/mL (≈ 20.7 µM); in test [4] (S = presence of serum), 9.5 µg/mL. The MIC in the test on Escherichia coli [5] was 7.9 µg/mL (≈ 16.4 µM); in the test on Klebsiella pneumoniae [6], 0.5 µg/mL (≈ 1.04 µM); with Serratia marcescens [7], 5.4 µg/mL (≈ 11.2 µM); in [8] (NS = absence of serum) it was 0.4 µg/mL (≈ 0.829 µM); in [8] (S = presence of serum), 0.5 µg/mL.
Broadly, the zone of inhibition is the extent of the growth-free halo in a diffusion test. Regarding `COC1(NC(=O)Cn2cnnn2)C(=O)N2C(C(=O)O)=C(CSc3nnc(C)s3)CS[C@@H]21` (stereo partly shown) [C, 7-[2-(1-tetrazolyl)acetamido]-7-methoxy-3-(5-methyl-1,3,4-thiadiazol-2-ylthiomethyl)-3-cephem-4-carboxylic acid], the zone of inhibition at 500 µg/mL in the test on Staphylococcus aureus amounted to 24 mm; in the test on Salmonella gallinarum, 26 mm; in the test on Escherichia coli [9] it was 23 mm; in the test with Bacillus subtilis it was 25 mm; in the test on Mycobacterium avium (concentration 0.5 mg/ml (ditto)) it was 10 mm; in the test on Sarcina lutea it was 23 mm. Further, the zone of inhibition at 500 µg/mL in the test on Serratia marcescens [10] worked out at 19 mm; with Proteus vulgaris, 21 mm; with Klebsiella pneumoniae [11], 19 mm; in the test with Pseudomonas solanacearum, 16 mm.
For the compound `COC1(NC(=O)Cn2cnnn2)C(=O)N2C(C(=O)O)=C(COC(C)=O)CSC21` (stereo not shown) [D, 7-[2-(1-Tetrazolyl)acetamido]:7:methoxy-3-acetoxymethyl-3-cephem-4-carboxylic acid], the zone of inhibition at 500 µg/mL turned out to be 24 mm with Staphylococcus aureus; 25 mm with Salmonella gallinarum; 20 mm in the test with Escherichia coli [9]; 24 mm with Bacillus subtilis; 23 mm in the test on Sarcina lutea; 17 mm with Serratia marcescens [10]. The zone of inhibition at 500 µg/mL stood at 18 mm in the test on Proteus vulgaris, 17 mm with Klebsiella pneumoniae [11] and 23 mm with Pseudomonas solanacearum. Moreover, in the test with Mycobacterium avium (concentration 5.0 mg/ml), the zone of inhibition at 5000 µg/mL was 20 mm.
For `COC1(NC(=O)C(O)c2ccccc2)C(=O)N2C(C(=O)O)=C(CSc3nnc(C)s3)CS[C@@H]21` (stereo partly shown) [E, 7-methoxy-7-mandelamido-3-(5-methyl-1,3,4-thiadiazol-2-ylthiomethyl)-3-cephem-4-carboxylic acid], the zone of inhibition at 100 µg/mL in the test on Staphylococcus aureus (concentration 0.1 mg/ml) amounted to 25 mm; with Escherichia coli [9] (concentration 0.1 mg/ml), 22 mm; in the test with Bacillus subtilis (setting [12]) it was 22 mm; with Sarcina lutea (setting [12]), 24 mm; with Proteus vulgaris (concentration 0.1 mg/ml), 18 mm; in the test on Klebsiella pneumoniae [11] (setting [12]), 16 mm. Besides, the zone of inhibition at 1000 µg/mL in the test with Salmonella gallinarum (concentration 1.0 mg/ml) was determined as 20 mm; in the test on Mycobacterium avium (concentration 1.0 mg/ml), 15 mm; with Serratia marcescens [10] (concentration 1.0 mg/ml), 18 mm; with Pseudomonas solanacearum it was 16 mm.

Source of the values: US3994885A, “Process for etherifying β-lactam antibiotics” (Eli Lilly and Company, priority 1975, dated 1976).
